Assay results from patent US11040036B2, “Pyruvate kinase activators for use in treating blood disorders” (Agios Pharmaceuticals, Inc., priority 2017, dated 2021).

What was measured:
[1] = target: T1, wild type PKR (Homo sapiens, UniProt P30613); assay: PKR mutant assay (AC50), wild type PKR; format: biochemical; settings: wild type PKR enzyme; read-out: PKR WT AC50
Protocol: (§1) Example 11. PKR Mutant Assay
(§2) PKR or PKR mutant enzyme solution was diluted into a reaction mix, which contains 1× buffer (100 mM KCl, 50 mM Tris pH 7.5, 5 mM MgCl2) as well as PEP (cont depends on enzyme), 180 μM NADH, 0.5 units LDH, 1 mM DTT, 0.03% BSA; final assay concentrations after 1.11 fold dilution are indicated.
(§3) 2 μL of test compound was added into wells first, and then 180 μL reaction mix was added.
(§4) Reactions mixture with test compound was assembled except for ADP, and plates were stored for 60 minutes at room temperature.
(§5) 20 uL ADP was added to start reaction at room temperature and reaction progress was measured as changes in absorbance at 340 nm wavelength at room temperature.
(§6) Test Compound Preparation:
(§7) Test compound stock was made at 100× concentration in 100% DMSO (10 mM)
(§8) 1 to 3 dilutions were made for 11 points (i.e. 50 μl of first concentration added to 100 μl 100% DMSO to yield 3.33 mM, 50 μl of this added to 100 μl DMSO to yield 1.11 mM, and so forth) • 1 to 100 dilution into assay (2 μl in 200 μl) yielded starting concentration of 100 μM, decreasing 3 fold for 11 points.
(§9) Assay Buffer: 100 mM KCl, 50 mM Tris 7.5, 5 mM MgCl2, 1 ruM DTT, 0.03% BSA
(§10) Reaction Mixture: PKR mutant enzyme: 40-400 ng/well; ADP: 0.2-1.65 mM; PEP: 0.1-0.5 mM; NADH:180 μM; LDH: 0.5 units (Sigma #59023); DTT: 1 mM; BSA: 0.03%.

[2] = target: PKR K410E (Homo sapiens, UniProt P30613, K410E); assay: PKR mutant assay (AC50), PKR K410E; format: biochemical; settings: PKR K410E mutant enzyme
Chain of PKR K410E (P30613 whole entry K410E): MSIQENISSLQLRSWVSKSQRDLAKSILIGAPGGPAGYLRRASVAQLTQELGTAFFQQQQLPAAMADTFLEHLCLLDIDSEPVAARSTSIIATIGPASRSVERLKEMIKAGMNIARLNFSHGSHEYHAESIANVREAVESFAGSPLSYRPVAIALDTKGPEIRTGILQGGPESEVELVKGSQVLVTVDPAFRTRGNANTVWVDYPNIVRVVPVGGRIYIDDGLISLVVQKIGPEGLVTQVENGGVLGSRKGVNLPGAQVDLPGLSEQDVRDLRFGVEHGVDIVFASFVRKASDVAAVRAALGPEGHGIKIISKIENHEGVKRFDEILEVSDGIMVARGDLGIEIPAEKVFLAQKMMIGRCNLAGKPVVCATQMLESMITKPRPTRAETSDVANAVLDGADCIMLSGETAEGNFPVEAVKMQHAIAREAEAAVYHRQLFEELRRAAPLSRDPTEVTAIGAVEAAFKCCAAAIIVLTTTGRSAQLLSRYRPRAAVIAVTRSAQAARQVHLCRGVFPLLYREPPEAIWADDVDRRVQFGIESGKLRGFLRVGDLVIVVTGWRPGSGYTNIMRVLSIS
Protocol: as §1, §2, §3, §4, §5, §6, §7, §8, §9, §10

[3] = target: PKR R510Q (Homo sapiens, UniProt P30613, R510Q); assay: PKR mutant assay (AC50), PKR R510Q; format: biochemical; settings: PKR R510Q mutant enzyme; read-out: PK R510Q AC50
Chain of PKR R510Q (P30613 whole entry R510Q): as the sequence (P30613 whole entry K410E) above, with E410K, R510Q counted along it
Protocol: as §1, §2, §3, §4, §5, §6, §7, §8, §9, §10

[4] = target: T1, wild type PKR; assay: Cell based ATP assay in purified red blood cells; set-up: endogenous in cells; host or cells: purified red blood cells from blood of healthy volunteers; settings: RBCs, overnight at 37° C., ATP levels by Cell-Titer-Glo
Protocol: Example 16. Red Blood Cell (RBC) Purification
Fresh blood drawn from healthy volunteers into K2EDTA tubes was collected. Whole blood was pelleted by spinning at 500 g for 10 minutes. Cut transfusion bag port off of Purecell leukocyte reduction neofilter (Fisher NCO267633) one (1) inch above filter. Attach a 10 ml syringe barrel to the remaining cut tubing attached to neofilter. The plasma layer was removed from the pellet of the whole blood and the pellet was resuspended in 2× volume of phosphate buffered saline (PBS). Transfer 9 ml re-suspended blood cell pellet to prepared 10 ml syringe that is attached to the neofilter. Allow whole blood to gravity flow through filter until all fluid runs through upper tubing into filter disc. Add plunger to the syringe, remove syringe from clamp and invert the filter, then plunge air through the syringe filter system. Using a new 5 ml syringe, remove filtered RBCs from the bag by the syringe port and transfer purified RBCs to a 5 ml snap cap tube that has been incubated on ice. Spin 5 ml snap cap tube at 500 g for 10 minutes at 15 C, aspirate supernatant and resuspend in AGAM (1×PBS, 1% glucose, 170 mg/L adenine, 5.25 g/L mannitol) at a density of 4×10^9 cells/mL.
Example 17. Cell Based ATP Assay
For cell based ATP assays, the compound as described herein was prepared in 100% DMSO as a 10 mM stock. Serial dilutions (1:4) were performed in 96-well V-bottom storage plate and then added 1:100 to 96-well V-bottom plates containing AGAM. RBCs were diluted in AGAM media to a density of 1×10^7 cells/mL before added 90 μL/well to black clear bottom assay plates (final compound concentration at 0.1% DMSO concentration). Assay plates were sealed using aluminum foil seals and incubated overnight at 37° C. in a humidified chamber. ATP levels were read out using Cell-Titer-Glo (Promega).

T1 sequence (P30613 whole entry): as the sequence (P30613 whole entry K410E) above, with E410K counted along it

SMILES | AC50 [1] [nM] | AC50 [2] [nM] | AC50 [3] [nM] | AC50 [4] [nM]
Cn1c2nc(Cc3cc[nH]n3)sc2c2cnn(Cc3cccc(N)n3)c(=O)c21 | < 300 | < 300 | < 300 | ≤ 1000
Cn1c2nc(Cc3cc[nH]n3)sc2c2cnn(Cc3csc(N)n3)c(=O)c21 | < 300 | < 300 | < 300 | ≤ 1000
Cn1c2nc(Cc3n[nH]cc3F)sc2c2cnn(Cc3cc[nH]n3)c(=O)c21 | < 300 | < 300 | < 300 | ≤ 1000
Cc1ccc(Cn2ncc3c4sc(Cc5cc[nH]n5)nc4n(C)c3c2=O)nc1Cl | < 300 | < 300 | < 300 | ≤ 1000
Cn1c2nc(Cc3cc[nH]n3)sc2c2cnn(Cc3cc(F)[nH]n3)c(=O)c21 | < 300 | < 300 | < 300 | ≤ 1000
COc1scnc1Cn1ncc2c3sc(Cc4cc[nH]n4)nc3n(C)c2c1=O | < 300 | < 300 | < 300 | ≤ 1000
Cc1scnc1Cc1nc2c(s1)c1cnn(Cc3c[nH]nn3)c(=O)c1n2C | < 300 | < 300 | < 300 | ≤ 1000
Cn1c2nc(Cc3cc[nH]n3)sc2c2cnn(Cc3cc(C(N)=O)[nH]n3)c(=O)c21 | 301 to 800 | 301 to 800 | > 800 | > 1000
Cn1c2nc(Cc3ncsc3F)sc2c2cnn(Cc3cc[nH]n3)c(=O)c21 | < 300 | < 300 | < 300 | ≤ 1000
Cn1cc(Cn2ncc3c4sc(Cc5cc[nH]n5)nc4n(C)c3c2=O)nn1 | < 300 | < 300 | < 300 | ≤ 1000
Cn1c2nc(Cc3cc[nH]n3)sc2c2cnn(Cc3ccc(F)c(N)n3)c(=O)c21 | < 300 | < 300 | < 300 | ≤ 1000
Cn1ccc(Cn2ncc3c4sc(Cc5n[nH]cc5F)nc4n(C)c3c2=O)n1 | < 300 | < 300 | < 300 | ≤ 1000
Cn1c2nc(Cc3nc(N)sc3F)sc2c2cnn(Cc3c[nH]nn3)c(=O)c21 | < 300 | < 300 | < 300 | ≤ 1000
Cn1c2nc(Cc3ncsc3F)sc2c2cnn(Cc3c[nH]nn3)c(=O)c21 | < 300 | < 300 | < 300 | ≤ 1000
CCOC(c1cscn1)c1nc2c(s1)c1cnn(Cc3c[nH]nn3)c(=O)c1n2C (centres unmarked) | > 800 | > 800 | > 800 | > 1000
Cn1c2nc(Cc3cc[nH]n3)sc2c2cnn(Cc3cccnc3)c(=O)c21 | < 300 | < 300 | < 300 | ≤ 1000
Cn1c2nc(Cc3cc[nH]n3)sc2c2cnn(Cc3ccccn3)c(=O)c21 | < 300 | < 300 | < 300 | ≤ 1000
Cn1c2nc(Cc3cc[nH]n3)sc2c2cnn(Cc3ccncc3)c(=O)c21 | < 300 | < 300 | < 300 | ≤ 1000
Cn1c2nc(Cc3cc[nH]n3)sc2c2cnn(Cc3ccc(=O)[nH]c3)c(=O)c21 | < 300 | < 300 | < 300 | ≤ 1000
Cn1c2nc(Cc3cc[nH]n3)sc2c2cnn(Cc3cc[nH]c(=O)c3)c(=O)c21 | < 300 | < 300 | 301 to 800 | ≤ 1000
Cn1ccc(Cc2nc3c(s2)c2cnn(Cc4c[nH]nn4)c(=O)c2n3C)n1 | < 300 | < 300 | < 300 | ≤ 1000
Cn1ccc(Cc2nc3c(s2)c2cnn(Cc4ccn(C)n4)c(=O)c2n3C)n1 | < 300 | < 300 | < 300 | ≤ 1000
Cn1c2nc(Cn3cc[nH]c3=O)sc2c2cnn(Cc3cc[nH]n3)c(=O)c21 | < 300 | < 300 | < 300 | ≤ 1000
